The results in this text go back to PubChem BioAssay AID1259407 (Chemical Carcinogenesis Research Information System (CCRIS), 2018).

This data set concerns CCRIS mutagenicity, Ames/micronucleus/aberration tests. Put plainly: CCRIS mutagenicity studies. Particulars: Test System: AMES SALMONELLA TYPHIMURIUM

Each structure is given as a SMILES string. Calls of active or inactive are those of the source. How the calls were made is not given here.

As for `COc1ccc(N(CCCl)CCCl)c2oc([N+](=O)[O-])cc12`, the mutagenic call (Strain/Indicator: TA100(NR), Metabolic Activation: NONE, Method: STANDARD PLATE) was “active; positive”; the mutagenic call (Strain/Indicator: TA100(NR), Metabolic Activation: RAT, LIVER, S-9, AROCLOR 1254, Method: STANDARD PLATE) was “active; positive”; the mutagenic call (Strain/Indicator: TA100, Metabolic Activation: NONE, Method: STANDARD PLATE) is “active; positive”; the mutagenic call (Strain/Indicator: TA100, Metabolic Activation: RAT, LIVER, S-9, AROCLOR 1254, Method: STANDARD PLATE) is “active; positive”.
Take `Clc1cccc2cccnc12`: the mutagenic call reads like this: (Strain/Indicator: TA100, Metabolic Activation: RAT, LIVER, S-9, PHENOBARBITAL AND 5,6-BENZOFLAVONE, Method: PREINCUBATION) “active; positive”; (Strain/Indicator: TA100, Metabolic Activation: S-9, Method: PREINCUBATION) “inactive; negative”.
